# Test results taken from patent US7632972B2, “Compounds and methods for treatment of cancer and modulation of programmed cell death for melanoma and other cancer cells” (The Board of Trustees of the University of Illionis, priority 2003, dated 2009).
# Legend:
# Format in all cases: cell-based, human
# PC-3 = experiment: NCI 60 cell line screen (SRB), Prostate Cancer
# From the text: (§1) The operation of this screen utilizes 60 different human tumor cell lines, representing leukemia, melanoma and cancers of the lung, colon, brain, ovary, breast, prostate, and kidney. The aim is to prioritize for further evaluation, synthetic compounds or natural product samples showing selective growth inhibition or cell killing of particular tumor cell lines. This screen is unique in that the complexity of a 60 cell line dose response produced by a given compound results in a biological response pattern which can be utilized in pattern recognition algorithms. Using these algorithms, it is possible to assign a putative mechanism of action to a test compound, or to determine that the response pattern is unique and not similar to that of any of the standard prototype compounds included in the NCl database (see DTP Overview tab). In addition, following characterization of various cellular molecular targets in the 60 cell lines, it may be possible to select compounds most likely to interact with a specific molecular target.
# (§2) The human tumor cell lines of the cancer screening panel are grown in RPMI 1640 medium containing 5% fetal bovine serum and 2 mM L-glutamine. For a typical screening experiment, cells are inoculated into 96 well microtiter plates in 100 μL at plating densities ranging from 5,000 to 40,000 cells/well depending on the doubling time of individual cell lines. After cell inoculation, the microtiter plates are incubated at 37° C., 5% CO2, 95% air and 100% relative humidity for 24 h prior to addition of experimental drugs.
# (§3) After 24 h, two plates of each cell line are fixed in situ with TCA, to represent a measurement of the cell population for each cell line at the time of drug addition (Tz). Experimental drugs are solubilized in dimethyl sulfoxide at 400-fold the desired final maximum test concentration and stored frozen prior to use. At the time of drug addition, an aliquot of frozen concentrate is thawed and diluted to twice the desired final maximum test concentration with complete medium containing 50 μg/ml gentamicin. Additional four, 10-fold or ½ log serial dilutions are made to provide a total of five drug concentrations plus control. Aliquots of 100 μl of these different drug dilutions are added to the appropriate microtiter wells already containing 100 μl of medium, resulting in the required final drug concentrations.
# (§4) Following drug addition, the plates are incubated for an additional 48 h at 37° C., 5% CO2, 95% air, and 100% relative humidity. For adherent cells, the assay is terminated by the addition of cold TCA. Cells are fixed in situ by the gentle addition of 50 μl of cold 50% (w/v) TCA (final concentration, 10% TCA) and incubated for 60 minutes at 4° C. The supernatant is discarded, and the plates are washed five times with tap water and air dried. Sulforhodamine B (SRB) solution (100 μl) at 0.4% (w/v) in 1% acetic acid is added to each well, and plates are incubated for 10 minutes at room temperature. After staining, unbound dye is removed by washing five times with 1% acetic acid and the plates are air dried. Bound stain is subsequently solubilized with 10 mM trizma base, and the absorbance is read on an automated plate reader at a wavelength of 515 nm. For suspension cells, the methodology is the same except that the assay is terminated by fixing settled cells at the bottom of the wells by gently adding 50 μl of 80% TCA (final concentration, 16% TCA). Using the seven absorbance measurements [time zero, (Tz), control growth, (C), and test growth in the presence of drug at the five concentration levels (Ti)], the percentage growth is calculated at each of the drug concentrations levels. Percentage growth inhibition is calculated as: [(Ti−Tz)/(C−Tz)]×100 for concentrations for which Ti>/=Tz [(Ti−Tz)/Tz]×100 for concentrations for which Ti<Tz.
# (§5) Three dose response parameters are calculated for each experimental agent. […]
# DU-145 = experiment: NCI 60 cell line screen (SRB), Prostate Cancer
# From the text: as §1, §2, §3, §4, §5
# T-47D = experiment: NCI 60 cell line screen (SRB), Breast Cancer
# From the text: as §1, §2, §3, §4, §5
# NCI/ADR-RES = experiment: NCI 60 cell line screen (SRB), Breast Cancer
# From the text: as §1, §2, §3, §4, §5
# MCF7 = experiment: NCI 60 cell line screen (SRB), Breast Cancer
# From the text: as §1, §2, §3, §4, §5
# SK-MEL-28 = experiment: NCI 60 cell line screen (SRB), Melanoma
# From the text: as §1, §2, §3, §4, §5
# SK-MEL-5 = experiment: NCI 60 cell line screen (SRB), Melanoma
# From the text: as §1, §2, §3, §4, §5
# SK-MEL-2 = experiment: NCI 60 cell line screen (SRB), Melanoma
# From the text: as §1, §2, §3, §4, §5
# UACC-62 = experiment: NCI 60 cell line screen (SRB), Melanoma
# From the text: as §1, §2, §3, §4, §5
# [1] = read-out: LC50 (the source's name)
compound,measurement,setting,value
COc1cccc(CCNC(=O)CC(c2ccccc2)(c2ccccc2)c2ccccc2)c1 [Compound Z3],GI50,PC-3; PC-3,6.12 µM
same,TGI,PC-3; PC-3,>1.00E−04
same,Percent Growth,"PC-3; PC-3, Log10 Concentration −4.0",12%
same,Percent Growth,"PC-3; PC-3, Log10 Concentration −5.0",39%
same,Percent Growth,"PC-3; PC-3, Log10 Concentration −6.0",90%
same,Percent Growth,"PC-3; PC-3, Log10 Concentration −7.0",96%
same,Percent Growth,"PC-3; PC-3, Log10 Concentration −8.0",100%
same,CC50,"PC-3; PC-3, read-out: LC50 (the source's name)",> 100 µM
same,GI50,DU-145; DU-145,26.8 µM
same,TGI,DU-145; DU-145,>1.00E−04
same,Percent Growth,"DU-145; DU-145, Log10 Concentration −4.0",31%
same,Percent Growth,"DU-145; DU-145, Log10 Concentration −5.0",64%
same,Percent Growth,"DU-145; DU-145, Log10 Concentration −6.0",88%
same,Percent Growth,"DU-145; DU-145, Log10 Concentration −7.0",93%
same,Percent Growth,"DU-145; DU-145, Log10 Concentration −8.0",88%
same,CC50,"DU-145; DU-145, read-out: LC50 (the source's name)",> 100 µM
same,GI50,T-47D,> 100 µM
same,TGI,T-47D,>1.00E−04
same,Percent Growth,T-47D; Log10 Concentration −4.0,84%
same,Percent Growth,T-47D; Log10 Concentration −5.0,55%
same,Percent Growth,T-47D; Log10 Concentration −6.0,78%
same,Percent Growth,T-47D; Log10 Concentration −7.0,108%
same,Percent Growth,T-47D; Log10 Concentration −8.0,78%
same,CC50,T-47D; [1],> 100 µM
same,GI50,NCI/ADR-RES,5.26 µM
same,TGI,NCI/ADR-RES,>1.00E−04
same,Percent Growth,NCI/ADR-RES; Log10 Concentration −4.0,27%
same,Percent Growth,NCI/ADR-RES; Log10 Concentration −5.0,42%
same,Percent Growth,NCI/ADR-RES; Log10 Concentration −6.0,69%
same,Percent Growth,NCI/ADR-RES; Log10 Concentration −7.0,93%
same,Percent Growth,NCI/ADR-RES; Log10 Concentration −8.0,69%
same,CC50,NCI/ADR-RES; [1],> 100 µM
same,GI50,MCF7; MCF7,21.5 µM
same,TGI,MCF7; MCF7,>1.00E−04
same,Percent Growth,"MCF7; MCF7, Log10 Concentration −4.0",31%
same,Percent Growth,"MCF7; MCF7, Log10 Concentration −5.0",60%
same,Percent Growth,"MCF7; MCF7, Log10 Concentration −6.0",85%
same,Percent Growth,"MCF7; MCF7, Log10 Concentration −7.0",116%
same,Percent Growth,"MCF7; MCF7, Log10 Concentration −8.0",91%
same,CC50,"MCF7; MCF7, read-out: LC50 (the source's name)",> 100 µM
same,GI50,SK-MEL-28; SK-MEL-28,> 100 µM
same,TGI,SK-MEL-28; SK-MEL-28,>1.00E−04
same,Percent Growth,"SK-MEL-28; SK-MEL-28, Log10 Concentration −4.0",94%
same,Percent Growth,"SK-MEL-28; SK-MEL-28, Log10 Concentration −5.0",103%
same,Percent Growth,"SK-MEL-28; SK-MEL-28, Log10 Concentration −6.0",96%
same,Percent Growth,"SK-MEL-28; SK-MEL-28, Log10 Concentration −7.0",105%
same,Percent Growth,"SK-MEL-28; SK-MEL-28, Log10 Concentration −8.0",84%
same,CC50,"SK-MEL-28; SK-MEL-28, read-out: LC50 (the source's name)",> 100 µM
same,GI50,SK-MEL-5; SK-MEL-5,4.84 µM
same,TGI,SK-MEL-5; SK-MEL-5,>1.00E−04
same,Percent Growth,"SK-MEL-5; SK-MEL-5, Log10 Concentration −4.0",15%
same,Percent Growth,"SK-MEL-5; SK-MEL-5, Log10 Concentration −5.0",21%
same,Percent Growth,"SK-MEL-5; SK-MEL-5, Log10 Concentration −6.0",113%
same,Percent Growth,"SK-MEL-5; SK-MEL-5, Log10 Concentration −7.0",112%
same,Percent Growth,"SK-MEL-5; SK-MEL-5, Log10 Concentration −8.0",80%
same,CC50,"SK-MEL-5; SK-MEL-5, read-out: LC50 (the source's name)",> 100 µM
same,GI50,SK-MEL-2; SK-MEL-2,4.41 µM
same,TGI,SK-MEL-2; SK-MEL-2,>1.00E−04
same,Percent Growth,"SK-MEL-2; SK-MEL-2, Log10 Concentration −4.0",18%
same,Percent Growth,"SK-MEL-2; SK-MEL-2, Log10 Concentration −5.0",24%
same,Percent Growth,"SK-MEL-2; SK-MEL-2, Log10 Concentration −6.0",97%
same,Percent Growth,"SK-MEL-2; SK-MEL-2, Log10 Concentration −7.0",85%
same,Percent Growth,"SK-MEL-2; SK-MEL-2, Log10 Concentration −8.0",80%
same,CC50,"SK-MEL-2; SK-MEL-2, read-out: LC50 (the source's name)",> 100 µM
same,GI50,UACC-62; UACC-62,0.613 µM
same,TGI,UACC-62; UACC-62,>1.00E−04
same,Percent Growth,"UACC-62; UACC-62, Log10 Concentration −4.0",22%
same,Percent Growth,"UACC-62; UACC-62, Log10 Concentration −5.0",14%
same,Percent Growth,"UACC-62; UACC-62, Log10 Concentration −6.0",41%
same,Percent Growth,"UACC-62; UACC-62, Log10 Concentration −7.0",83%
same,Percent Growth,"UACC-62; UACC-62, Log10 Concentration −8.0",94%
same,CC50,"UACC-62; UACC-62, read-out: LC50 (the source's name)",> 100 µM
